For eleven molecules, EC50 results are on record in patent publication US7709481B2, “Phenyl-1,2,4-oxadiazolone derivatives, processes for their preparation and methods for their use as pharmaceuticals” (Sanofi-Aventis, priority 2005, dated 2010).

A value given as a limit tells only on which side of the number the result lay.

For one assay, the target named is T1, human PPARdelta (Homo sapiens, UniProt Q03181).
T1 construct: human PPARdelta receptor (amino acids S139-Y441); expressed in transfected cells; plasmid pcDNA3
T1 sequence (Q03181 139-441): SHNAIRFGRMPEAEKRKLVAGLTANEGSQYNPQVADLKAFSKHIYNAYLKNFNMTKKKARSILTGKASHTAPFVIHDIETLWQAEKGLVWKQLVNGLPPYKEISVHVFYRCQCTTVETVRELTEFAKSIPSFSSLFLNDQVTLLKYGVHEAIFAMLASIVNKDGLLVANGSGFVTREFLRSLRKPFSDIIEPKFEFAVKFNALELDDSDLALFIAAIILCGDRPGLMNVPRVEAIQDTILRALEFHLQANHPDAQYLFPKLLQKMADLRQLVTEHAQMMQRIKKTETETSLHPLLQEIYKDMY
The experiment in a line: Cellular PPARdelta assay (HEK PPARdelta reporter cell line, luciferase). The following applies: 24 h incubation. The assay is classed as cell-based. As for the experimental part:
The raw data from the luminometer are transferred into a Microsoft Excel file. Dose-effect plots and EC50 values of PPAR agonists are calculated using the XL.Fit program as specified by the manufacturer (IDBS). […] Compounds of the invention of the formula I activate the PPARalpha receptor. Determination of EC50 values of PPAR agonists in the cellular PPARdelta assay The potency of substances which bind to human PPARdelta and activate it in an agonistic manner is analyzed using a stably transfected HEK cell line (HEK=human embryo kidney) which is referred to here as PPARdelta reporter cell line. In analogy to the assay described for PPARalpha, the PPARdelta reporter cell line also contains two genetic elements, a luciferase reporter element (pdeltaM-GAL4-Luc-Zeo) and a PPARdelta fusion protein (GR-GAL4-humanPPARdelta-LBD) which mediates expression of the luciferase reporter element depending on a PPARdelta ligand. The stably and constitutively expressed fusion protein GR-GAL4-humanPPARdelta-LBD binds in the cell nucleus of the PPARdelta reporter cell line via the GAL4 protein portion to the GAL4 DNA binding motifs 5′-upstream of the luciferase reporter element which is stably integrated in the genome of the cell line. There is only little expression of the luciferase reporter gene in the absence of a PPARdelta ligand if fatty acid-depleted fetal calf serum (cs-FCS) is used in the assay. PPARdelta ligands bind and activate the PPARdelta fusion protein and thereby stimulate expression of the luciferase reporter gene. The luciferase which is formed can be detected by means of chemiluminescence via an appropriate substrate.
The production of the stable PPARdelta reporter cell line is based on a stable HEK-cell clone which was stably transfected with a luciferase reporter element. This step was already described above in the section “construction of the PPARalpha reporter cell line”. In a second step, the PPARdelta fusion protein (GR-GAL4-humanPPARdelta-LBD was stably introduced into this cell clone. For this purpose, the cDNA coding for the N-terminal 76 amino acids of the glucocorticoid receptor (Accession # P04150) was linked to the cDNA section coding for amino acids 1-147 of the yeast transcription factor GAL4 (Accession # P04386). The cDNA of the ligand-binding domain of the human PPARdelta receptor (amino acids S139-Y441; Accession # L07592) was cloned in at the 3′-end of this GR-GAL4 construct. The fusion construct prepared in this way (GR-GAL4-humanPPARdelta-LBD) was recloned into the plasmid pcDNA3 (Invitrogen) in order to enable constitutive expression by the cytomegalovirus promoter. This plasmid was linearized with a restriction endonuclease and stably transfected into the previously described cell clone containing the luciferase reporter element. The resulting PPARdelta reporter cell line which contains a luciferase reporter element and constitutively expresses the PPARdelta fusion protein (GR-GAL4-human PPARdelta-LBD) was isolated by selection with zeocin (0.5 mg/ml) and G418 (0.5 mg/ml).
The activity of PPARdelta agonists is determined in a 3-day assay in exact analogy to the procedure already described for the PPARalpha reporter cell line except that the PPARdelta reporter cell line and a specific PPARdelta agonist was used as a standard to control test efficacy. PPARdelta EC50 values in the range from 0.3 nM to >10 μM were measured for the PPAR agonists of Examples 1 to 69 described in this application. Compounds of the invention of the formula I activate the PPARdelta receptor.

The next assay deals with T2, human PPARalpha (Homo sapiens, UniProt Q07869).
T2 construct: human PPARalpha receptor (amino acids S167-Y468); expressed in transfected cells; plasmid pcDNA3
T2 sequence (Q07869 167-468): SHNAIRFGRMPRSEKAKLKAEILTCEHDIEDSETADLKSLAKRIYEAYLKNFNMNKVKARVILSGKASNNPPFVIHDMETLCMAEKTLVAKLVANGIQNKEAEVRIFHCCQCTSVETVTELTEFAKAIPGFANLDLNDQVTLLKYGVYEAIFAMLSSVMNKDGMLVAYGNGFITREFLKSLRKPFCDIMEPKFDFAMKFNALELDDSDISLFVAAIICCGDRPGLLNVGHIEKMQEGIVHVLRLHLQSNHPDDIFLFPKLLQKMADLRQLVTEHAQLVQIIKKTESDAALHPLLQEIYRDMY
The experiment in a line: Cellular PPARalpha assay (HEK PPARalpha reporter cell line, luciferase). To be noted: 24 h incubation. The assay is classed as cell-based. As for the experimental part: The activity of the compounds was tested as follows. The potency of substances which bind to human PPARalpha and activate it in an agonistic manner is analyzed using a stably transfected HEK cell line (HEK=human embryo kidney) which is referred to here as PPARalpha reporter cell line. It contains two genetic elements, a luciferase reporter element (pdeltaM-GAL4-Luc-Zeo) and a PPARalpha fusion protein (GR-GAL4-humanPPARalpha-LBD) which mediates expression of the luciferase reporter element depending on a PPARalpha ligand. The stably and constitutively expressed fusion protein GR-GAL4-humanPPARalpha-LBD binds in the cell nucleus of the PPARalpha reporter cell line via the GAL4 protein portion to the GAL4 DNA binding motifs 5′-upstream of the luciferase reporter element which is stably integrated in the genome of the cell line. There is only weak expression of the luciferase reporter gene in the absence of a PPARalpha ligand if fatty acid-depleted fetal calf serum (cs-FCS) is used in the assay. PPARalpha ligands bind and activate the PPARalpha fusion protein and thereby stimulate the expression of the luciferase reporter gene. The luciferase which is formed can be detected by means of chemiluminescence via an appropriate substrate.
The PPARalpha reporter cell line was prepared in two stages. Firstly, the luciferase reporter element was constructed and stably transfected into HEK cells. For this purpose, five binding sites of the yeast transcription factor GAL4 (Accession # AF264724) were cloned in 5′-upstream of a 68 bp-long minimal MMTV promoter (Accession # V01175). The minimal MMTV promoter section contains a CCAAT box and a TATA element in order to enable efficient transcription by RNA polymerase II. The cloning and sequencing of the GAL4-MMTV construct took place in analogy to the description of Sambrook J. et. al. (Molecular cloning, Cold Spring Harbor Laboratory Press, 1989). Then the complete Photinus pyralis gene (Accession # M15077) was cloned in 3′-downstream of the GAL4-MMTV element. After sequencing, the luciferase reporter element consisting of five GAL4 binding sites, MMTV promoter and luciferase gene was recloned into a plasmid which confers zeocin resistance in order to obtain the plasmid pdeltaM-GAL4-Luc-Zeo. This vector was transfected into HEK cells in accordance with the statements in Ausubel, F. M. et al. (Current protocols in molecular biology, Vol. 1-3, John Wiley & Sons, Inc., 1995).
In a second step, the PPARalpha fusion protein (GR-GAL4-humanPPARalpha-LBD was introduced into the stable cell clone described. For this purpose, initially the cDNA coding for the N-terminal 76 amino acids of the glucocorticoid receptor (Accession # P04150) was linked to the cDNA section coding for amino acids 1-147 of the yeast transcription factor GAL4 (Accession # P04386). The cDNA of the ligand-binding domain of the human PPARalpha receptor (amino acids S167-Y468; Accession # S74349) was cloned in at the 3′-end of this GR-GAL4 construct. The fusion construct prepared in this way (GR-GAL4-humanPPARalpha-LBD) was recloned into the plasmid pcDNA3 (Invitrogen) in order to enable constitutive expression therein by the cytomegalovirus promoter. This plasmid was linearized with a restriction endonuclease and stably transfected into the previously described cell clone containing the luciferase reporter element. The finished PPARalpha reporter cell line which contains a luciferase reporter element and constitutively expresses the PPARalpha fusion protein (GR-GAL4-human PPARalpha-LBD) was isolated by selection with zeocin (0.5 mg/ml) and G418 (0.5 mg/ml).
The activity of PPARalpha agonists is determined in a 3-day assay which is described below: […]

As for `Cc1nc(C2CCCCC2)sc1COc1ccc(-c2noc(=O)[nH]2)c(Cl)c1` [Example 5, 3-[2-Chloro-4-(2-cyclohexyl-4-methyl-thiazol-5-ylmethoxy)-phenyl]-4H-[1,2,4]oxadiazol-5-one], the EC50 on human PPARdelta was 230 nM; at human PPARalpha, 1260 nM.

In the case of `COCc1nc(CCC2CCCCC2)sc1COc1ccc(-c2noc(=O)[nH]2)c(Cl)c1` [Example 10, 3-{2-Chloro-4-[2-(2-cyclohexyl-ethyl)-4-methoxymethyl-thiazol-5-ylmethoxy]-phenyl}-4H-[1,2,4]oxadiazol-5-one], the EC50 on human PPARdelta is 70 nM; at human PPARalpha, 530 nM.

With `COCc1nc(C2CCCCCC2)sc1COc1ccc(-c2noc(=O)[nH]2)c(Cl)c1` [Example 11, 3-[2-Chloro-4-(2-cycloheptyl-4-methoxymethyl-thiazol-5-ylmethoxy)-phenyl]-4H-[1,2,4]oxadiazol-5-one], the figures for the EC50 on human PPARdelta and on human PPARalpha were 130 nM and 1250 nM, respectively.

Take `COCc1nc([C@H]2CC[C@H](c3ccc(Cl)cc3)CC2)sc1COc1ccc(-c2noc(=O)[nH]2)c(Cl)c1` [Example 12, Trans-3-(2-Chloro-4-{2-[4-(4-chloro-phenyl)-cyclohexyl]-4-methoxymethyl-thiazol-5-ylmethoxy}-phenyl)-4H-[1,2,4]oxadiazol-5-one]: the EC50 at human PPARdelta is 10 nM; at human PPARalpha, 800 nM.

In the case of `COCc1nc([C@H]2CC[C@H](C(F)(F)F)CC2)oc1COc1ccc(-c2noc(=O)[nH]2)c(Cl)c1` [Example 18a, Trans-3-{2-Chloro-4-[4-methoxymethyl-2-(4-trifluoromethyl-cyclohexyl)-oxazol-5-ylmethoxy]-phenyl}-4H-[1,2,4]oxadiazol-5-one], the EC50 is 40 nM at human PPARdelta and 2500 nM at human PPARalpha.

For the molecule `O=c1[nH]c(-c2ccc(OCc3sc(-c4ccc(C(F)(F)F)nc4)nc3CCCOCc3ccccc3)cc2Cl)no1` [Example 25, 3-{4-[4-(3-Benzyloxy-propyl)-2-(6-trifluoromethyl-pyridin-3-yl)-thiazol-5-ylmethoxy]-2-chloro-phenyl}-4H-[1,2,4]oxadiazol-5-one], the EC50 at human PPARdelta was 0.3 nM; at human PPARalpha it was 75 nM.

Take `Cc1nc(-c2ccc(C(F)(F)F)nc2)sc1C(OCc1ccc(-c2noc(=O)[nH]2)c(F)c1)C(F)(F)F` (stereo not shown) [Example 31, 3-(2-Fluoro-4-{2,2,2-trifluoro-1-[4-methyl-2-(6-trifluoromethyl-pyridin-3-yl)-thiazol-5-yl]-ethoxymethyl}-phenyl)-4H-[1,2,4]oxadiazol-5-one]: the EC50 was 14 nM on human PPARdelta and over 33000 nM at human PPARalpha.

As for `Cc1nc(-c2ccc(C(F)(F)F)nc2)sc1C(OCc1ccc(-c2noc(=O)[nH]2)c(Cl)n1)C(F)(F)F` (stereo not shown) [Example 37, 3-(2-Chloro-6-{2,2,2-trifluoro-1-[4-methyl-2-(6-trifluoromethyl-pyridin-3-yl)-thiazol-5-yl]-ethoxymethyl}-pyridin-3-yl)-4H-[1,2,4]oxadiazol-5-one], the figures for the concentration giving a half-maximal response (EC50) on human PPARdelta and at human PPARalpha were 59 nM and over 33000 nM, respectively.

On to `Cc1nc([C@H]2CC[C@H](C(F)(F)F)CC2)sc1C(OCc1ccc(-c2noc(=O)[nH]2)c(C2CC2)c1)C(F)(F)F` (stereo partly drawn) [Example 39, 3-(2-Cyclopropyl-4-{2,2,2-trifluoro-1-[4-methyl-2-(trans,1,4-trifluoromethyl-cyclohexyl)-thiazol-5-yl]-ethoxymethyl}-phenyl)-4H-[1,2,4]oxadiazol-5-one], for which the EC50 on human PPARdelta is 86 nM; on human PPARalpha, 5440 nM.

As to `Cc1nc(-c2cccc3cccnc23)sc1COc1ccc(-c2nc(=O)o[nH]2)c(Cl)c1` [Example 46, 3-[2-Chloro-4-(4-methyl-2-quinolin-8-yl-thiazol-5-ylmethoxy)-phenyl]-2H-[1,2,4]oxadiazol-5-one], the values for the 50% effective concentration (EC50) at human PPARdelta and at human PPARalpha were 7390 nM and 4330 nM, respectively.

For the molecule `CCC(Oc1cc(OC)c(-c2noc(=O)[nH]2)cc1F)c1sc([C@H]2CC[C@H](C(F)(F)F)CC2)nc1C` (stereo partly drawn) [Example 51, 3-(5-Fluoro-2-methoxy-4-{1-[4-methyl-2-(trans-1,4-trifluoromethyl-cyclohexyl)-thiazol-5-yl]-propoxy}-phenyl)-4H-1,2,4-oxadiazol-5-one], the EC50 came to 7 nM at human PPARdelta and 335 nM on human PPARalpha.

For orientation: EC50 means the concentration needed to bring the measured effect to its halfway point. A low value points to higher potency in that assay.
